Positions count from the first letter of the chain named.
Assays:
[1] = tested on: endogenous GC in Cos 7 cells; settings: biotinylated peptide, neutral pH
Method: For pulldown of endogenous and overexpressed GC from N2a cell lysates 20 nmol of LIMP-2-derived peptide (Helix 5 and 3×D) was incubated with 50 μl cell lysate at 4° C. overnight. The cells were harvested in EBC-buffer (Table 3). After blocking and equilibration of the streptavidin beads (see above) the cell lysate/peptide mixtures were added to the beads for 30 min. at room temperature. The supernatant was removed. After extensive washing of the beads with NaPhosphate buffer, the bound peptides and proteins were released from the beads by incubation with Laemmli buffer (see above). After centrifugation for 2 min. at 17,000×g the supernatant was removed (BOUND fraction) and subjected to SDS-Page and Western-blotting. An antibody against human GC (α-hGC, for details see Table 4) was used for detection.

recombinant GC = molecular target: T1, recombinant GC (Homo sapiens, UniProt P04062, R534H); assay: stabilization assay of recombinant GC at 37° C.; type: biochemical; settings: recombinant GC incubated with peptide at 37° C.
T1 construct: purchased Genzyme Therapeutics, Boston, USA
T1 sequence (P04062 40-536 R534H): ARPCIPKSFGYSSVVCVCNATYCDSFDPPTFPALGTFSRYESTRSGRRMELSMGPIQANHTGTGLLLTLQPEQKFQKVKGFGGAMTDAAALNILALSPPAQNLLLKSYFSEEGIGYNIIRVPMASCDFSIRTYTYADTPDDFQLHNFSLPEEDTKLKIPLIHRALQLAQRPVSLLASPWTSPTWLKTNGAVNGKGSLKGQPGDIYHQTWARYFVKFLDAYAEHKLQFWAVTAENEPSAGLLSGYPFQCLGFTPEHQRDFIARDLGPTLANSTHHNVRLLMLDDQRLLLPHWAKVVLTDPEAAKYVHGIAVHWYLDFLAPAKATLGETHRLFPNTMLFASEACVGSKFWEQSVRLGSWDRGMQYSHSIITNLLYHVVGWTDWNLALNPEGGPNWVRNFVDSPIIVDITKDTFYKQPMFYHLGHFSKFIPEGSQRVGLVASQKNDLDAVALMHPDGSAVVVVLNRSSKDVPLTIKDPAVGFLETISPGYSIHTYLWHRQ
Method: Proteins were visualized by coomassie staining (CBB). […] See also FIG. 6.
To address the functional impact of the observed interaction between the helix 5 peptide and recombinant GC, we measured GC activity in the presence of a one- to tenfold molar excess of the helix 5 peptide. […] No effect on enzymatic activity after incubation with the helix 5 peptide or the LIMP-2 ectodomain could be found for recombinant α-mannosidase (LAMAN) further emphasizing the specificity of the helix 5 peptide on GC activity (FIG. 6E). […] To analyze if the increase in GC activity is due to stabilization of the enzyme, recombinant GC was incubated with the helix 5 and the control peptide at 37° C. and the activity of GC was measured at regular intervals (FIG. 3F).

[2] = molecular target: T2, recombinant N370S mutant GC (Homo sapiens, UniProt P04062, N409S); assay: peptide pulldown of recombinant N370S mutant GC; type: binding; settings: cell-free system
T2 sequence (P04062 40-536 N409S): T1 sequence (P04062 40-536 R534H) with N370S, H495R
Method: For the pulldown of recombinant protein utilizing LIMP-2-derived peptides, 2 nmol of protein (GC, LAMAN and BSA) was incubated overnight at 4° C. with the ten-fold molecular amount (20 nmol) of biotinylated LIMP-2-derived peptides (helix 5, 3×D as well as TAT-peptides (see Table 1)) at neutral pH. The total incubation volume was 250 μl (50 mM NaPhosphate buffer, 150 mM NaCl, pH7). ‘High Capacity Streptavidin Beads’ (Thermo Fisher Scientific, Waltham, USA) were blocked with 1% BSA solution and equilibrated with the NaPhosphate buffer. For each pulldown 50 μl of beads were utilized and incubated with 200 μl enzyme/peptide mixture for 30 min. at room temperature. The remaining 50 μl of the enzyme/peptide samples were prepared for SDS-PAGE (INPUT fraction). After incubation of the beads with the enzyme/peptide mixture the samples were centrifuged for 1 min. at 1,500×g at 4° C. The supernatant was removed and stored at 4° C. (UNBOUND fraction). Subsequently, the beads were washed three times with NaPhosphate buffer followed by centrifugation at 4,000 rpm at room temperature. […] The INPUT and BOUND fractions of the pulldown experiments were loaded on a NuPAGE® Novex® 4-12% Bis-Tris gels (Thermo Fisher Scientific, Waltham, USA), subjected to electrophoresis and stained with coomassie (Brilliant Blue, R-250; BioRad). After destaining the gels were scanned.

Substance	co-precipitation of endogenous GC from cellular lysates [1]	GC enzymatic activity remaining at 72 hours (recombinant GC)	precipitation of recombinant N370S mutant GC [2]
Biotin-Ttds-LREIIEAMLKAYQQKLFVTHTVDE [helix 5 peptide]	specifically co-precipitated	still displayed significant enzymatic activity	
Biotin-Ttds-KFERQLREIIEAMLKAYQQKLFVTHTVDEYGRKKRRQRRR [helix 5 TAT-peptide]			as efficiently as recombinant wild-type GC

Reference: patent publication US10286038B2, “Lysosome membrane protein 2 (LIMP-2) based peptides and related uses” (Northwestern University, priority 2016, dated 2019)
